Results published in article PMC10893631, “Receptor-based pharmacophore modeling, molecular docking, synthesis and biological evaluation of novel VEGFR-2, FGFR-1, and BRAF multi-kinase inhibitors” (BMC Chemistry, 2024).

Columns and labels:
Assay in all cases: NCI SRB growth inhibition (single dose 10 µM / five-dose)
Format in all cases: cell-based, human
SW-620 = settings: Homo sapiens; for inhibition at 10 µM: SW-620 (Colon cancer), read-out: GI%
In short: (§1)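 After a 24 h pre-incubation, cells received drug at five serially diluted concentrations; two untreated plates per line were TCA-fixed at drug addition as Tz. Adherent plates were fixed with cold TCA, stained with SRB and washed with 1% acetic acid.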

HS 578 T = settings: Homo sapiens; for inhibition at 10 µM: HS 578 T (Breast cancer), read-out: GI%
In short: as §1

HCT-116 = settings: Homo sapiens, HCT-116; for inhibition at 10 µM: read-out: GI%
In short: as §1

CAKI-1 = settings: Homo sapiens; for inhibition at 10 µM: CAKI-1 (Renal cancer), read-out: GI%
In short: as §1

MDA-MB-435 = settings: Homo sapiens; for inhibition at 10 µM: MDA-MB-435 (Melanoma), read-out: GI%
In short: as §1

A549/ATCC = settings: Homo sapiens; for inhibition at 10 µM: A549/ATCC (Non-small cell lung cancer), read-out: GI%
In short: as §1

HCT-15 = settings: Homo sapiens; for inhibition at 10 µM: HCT-15 (Colon cancer), read-out: GI%
In short: as §1

ACHN = settings: Homo sapiens; for inhibition at 10 µM: ACHN (Renal cancer), read-out: GI%
In short: as §1

HOP-62 = settings: Homo sapiens; for inhibition at 10 µM: HOP-62 (Non-small cell lung cancer), read-out: GI%
In short: as §1

MALME-3 M = settings: Homo sapiens; for inhibition at 10 µM: MALME-3 M (Melanoma), read-out: GI%
In short: as §1

TK-10 = settings: Homo sapiens; for inhibition at 10 µM: TK-10 (Renal cancer), read-out: GI%
In short: as §1

OVCAR-5 = settings: Homo sapiens; for inhibition at 10 µM: OVCAR-5 (Ovarian cancer), read-out: GI%
In short: as §1

HCC-2998 = settings: Homo sapiens; for inhibition at 10 µM: HCC-2998 (Colon cancer), read-out: GI%
In short: as §1

NCI-H460 = settings: Homo sapiens; for inhibition at 10 µM: NCI-H460 (Non-small cell lung cancer), read-out: GI%
In short: as §1

SR = settings: Homo sapiens; for inhibition at 10 µM: SR (Leukemia), read-out: GI%
In short: as §1

OVCAR-8 = settings: Homo sapiens; for inhibition at 10 µM: OVCAR-8 (Ovarian cancer), read-out: GI%
In short: as §1

A498 = settings: Homo sapiens; for inhibition at 10 µM: A498 (Renal cancer), read-out: GI%
In short: as §1

SNB-19 = settings: Homo sapiens; for inhibition at 10 µM: SNB-19 (CNS cancer), read-out: GI%
In short: as §1

MDA-MB-468 = settings: Homo sapiens; for inhibition at 10 µM: MDA-MB-468 (Breast cancer), read-out: GI%
In short: as §1

MCF7 = settings: Homo sapiens; for inhibition at 10 µM: MCF7 (Breast cancer), read-out: GI%
In short: as §1

T-47D = settings: Homo sapiens, T47D; for inhibition at 10 µM: T-47D (Breast cancer), read-out: GI%
In short: as §1

EKVX = settings: Homo sapiens; for inhibition at 10 µM: EKVX (Non-small cell lung cancer), read-out: GI%
In short: as §1

MOLT-4 = settings: Homo sapiens; for inhibition at 10 µM: MOLT-4 (Leukemia), read-out: GI%
In short: as §1

COLO 205 = settings: Homo sapiens; for inhibition at 10 µM: COLO 205 (Colon cancer), read-out: GI%
In short: as §1

## COc1ccc(OC)c(C=NNC(=O)c2ccc3[nH]c(-c4ccc(Cl)cc4)nc3c2)c1 [8t, 2-(4-Chlorophenyl)-N'-(2,5-dimethoxybenzylidene)-1H-benzo[d]imidazole-5-carbohydrazide]
SW-620
  inhibition at 10 µM: 7.98%
HS 578 T
  inhibition at 10 µM: 48.8%
HCT-116
  inhibition at 10 µM: 43.1%
CAKI-1
  inhibition at 10 µM: 38.4%
MDA-MB-435
  inhibition at 10 µM: 14.3%
A549/ATCC
  inhibition at 10 µM: 8.76%
HCT-15
  inhibition at 10 µM: 58.2%
ACHN
  inhibition at 10 µM: 53.1%
HOP-62
  inhibition at 10 µM: 18.4%
MALME-3 M
  inhibition at 10 µM: 18.4%
TK-10
  inhibition at 10 µM: 10.9%
OVCAR-5
  inhibition at 10 µM: < 5%
HCC-2998
  inhibition at 10 µM: 14.6%
NCI-H460
  inhibition at 10 µM: 17.5%
SR
  inhibition at 10 µM: 31.4%
OVCAR-8
  inhibition at 10 µM: 17.2%
A498
  inhibition at 10 µM: 56.2%
SNB-19
  inhibition at 10 µM: 45.7%
MDA-MB-468
  inhibition at 10 µM: 30.4%
MCF7
  inhibition at 10 µM: 48.1%
T-47D
  inhibition at 10 µM: 61.8%
EKVX
  inhibition at 10 µM: 42.5%
MOLT-4
  inhibition at 10 µM: 58.9%
COLO 205
  inhibition at 10 µM: 18.3%

## COc1cc(C=NNC(=O)c2ccc3[nH]c(-c4ccc(Cl)cc4)nc3c2)cc(OC)c1OC [8u, 2-(4-Chlorophenyl)-N'-(3,4,5-trimethoxybenzylidene)-1H-benzo[d]imidazole-5-carbohydrazide]
SW-620
  inhibition at 10 µM: > 100%
SW-620; SW-620, Colon cancer, five-dose
  GI50: 4.4 µM
HS 578 T
  inhibition at 10 µM: > 100%
HS 578 T; HS 578 T, Breast cancer, five-dose
  GI50: 2.58 µM
HCT-116
  GI50: 3.26 µM
  inhibition at 10 µM: > 100%
CAKI-1
  inhibition at 10 µM: 97.1%
CAKI-1; CAKI-1, Renal cancer, five-dose
  GI50: 11.2 µM
MDA-MB-435
  inhibition at 10 µM: > 100%
MDA-MB-435; MDA-MB-435, Melanoma, five-dose
  GI50: 4.13 µM
A549/ATCC
  inhibition at 10 µM: 70.8%
A549/ATCC; A549/ATCC, Non-small cell lung cancer, five-dose
  GI50: 7.55 µM
HCT-15
  inhibition at 10 µM: 44.3%
HCT-15; HCT-15, Colon cancer, five-dose
  GI50: 73 µM
ACHN
  inhibition at 10 µM: 69.9%
ACHN; ACHN, Renal cancer, five-dose
  GI50: 7.93 µM
HOP-62
  inhibition at 10 µM: > 100%
HOP-62; HOP-62, Non-small cell lung cancer, five-dose
  GI50: 4.68 µM
MALME-3 M
  inhibition at 10 µM: > 100%
MALME-3 M; MALME-3 M, Melanoma, five-dose
  GI50: 1.12 µM
TK-10
  inhibition at 10 µM: 62.6%
TK-10; TK-10, Renal cancer, five-dose
  GI50: 28.8 µM
OVCAR-5
  inhibition at 10 µM: 37.4%
OVCAR-5; OVCAR-5, Ovarian cancer, five-dose
  GI50: 15.6 µM
HCC-2998
  inhibition at 10 µM: > 100%
HCC-2998; HCC-2998, Colon cancer, five-dose
  GI50: 11.1 µM
NCI-H460
  inhibition at 10 µM: > 100%
NCI-H460; NCI-H460, Non-small cell lung cancer, five-dose
  GI50: 3.19 µM
SR
  inhibition at 10 µM: > 100%
SR; SR, Leukemia, five-dose
  GI50: 3.76 µM
OVCAR-8
  inhibition at 10 µM: > 100%
OVCAR-8; OVCAR-8, Ovarian cancer, five-dose
  GI50: 3.87 µM
A498
  inhibition at 10 µM: > 100%
A498; A498, Renal cancer, five-dose
  GI50: 26.4 µM
SNB-19
  inhibition at 10 µM: > 100%
SNB-19; SNB-19, CNS cancer, five-dose
  GI50: 3.42 µM
MDA-MB-468
  inhibition at 10 µM: > 100%
MDA-MB-468; MDA-MB-468, Breast cancer, five-dose
  GI50: 3.27 µM
MCF7
  inhibition at 10 µM: > 100%
MCF7; MCF7, Breast cancer, five-dose
  GI50: 0.66 µM
T-47D
  inhibition at 10 µM: > 100%
T-47D; T-47D, Breast cancer, five-dose
  GI50: 3.48 µM
EKVX
  inhibition at 10 µM: 90.8%
EKVX; EKVX, Non-small cell lung cancer, five-dose
  GI50: 14.8 µM
MOLT-4
  inhibition at 10 µM: 96%
MOLT-4; MOLT-4, Leukemia, five-dose
  GI50: 3.58 µM
COLO 205
  inhibition at 10 µM: > 100%
COLO 205; COLO 205, Colon cancer, five-dose
  GI50: 2.84 µM
